Columns and labels:
Assay type in all cases: in vivo
[1] = test system: ryegrass, Italian (Italian ryegrass, Lolium multiflorum); test: Test A preemergence; conditions: Lolium multiflorum, pre-emergence, 240 h; for pest or weed control at 125 g/ha: 125 g ai/ha, Preemergence, visual injury rating after approximately 10 d, read-out: Ryegrass, Italian plant response rating (0 to 100 scale, 0 is no effect, 100 is complete control); for pest or weed control at 500 g/ha: 500 g ai/ha, preemergence, visual injury rating about 10 d after treatment, 0 to 100 scale (0 no effect, 100 complete control), read-out: Ryegrass, Italian plant response rating
Summary of the method: (§1)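 Compounds were formulated in a non-phytotoxic solvent mixture with surfactant and applied as a preemergence directed soil spray after seeding, or sprayed postemergence over plants 2 to 10 cm tall at the one- to two-leaf stage. Evaluation after about 10 d compared treated with untreated controls, using a scale from 0 (no effect) to 100 (complete control).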

[2] = test system: barnyardgrass (Echinochloa crus-galli); test: Test A preemergence; conditions: Echinochloa crus-galli, pre-emergence, 240 h; for pest or weed control at 125 g/ha: 125 g ai/ha, Preemergence, visual injury rating after approximately 10 d, read-out: Barnyardgrass plant response rating (0 to 100 scale, 0 is no effect, 100 is complete control); for pest or weed control at 500 g/ha: 500 g ai/ha, preemergence, visual injury rating about 10 d after treatment, 0 to 100 scale (0 no effect, 100 complete control), read-out: Barnyardgrass plant response rating
Summary of the method: as §1

Kochia (Kochia scoparia) [3] = test: Test A preemergence; conditions: Bassia scoparia, pre-emergence, 240 h; for pest or weed control at 125 g/ha: 125 g ai/ha, Preemergence, visual injury rating after approximately 10 d, read-out: Kochia plant response rating (0 to 100 scale, 0 is no effect, 100 is complete control); for pest or weed control at 500 g/ha: 500 g ai/ha, preemergence, visual injury rating about 10 d after treatment, 0 to 100 scale (0 no effect, 100 complete control), read-out: Kochia plant response rating
Summary of the method: as §1

[4] = test system: giant foxtail (Setaria faberii); test: Test A preemergence; conditions: Setaria faberi, pre-emergence, 240 h; for pest or weed control at 125 g/ha: 125 g ai/ha, Preemergence, visual injury rating after approximately 10 d, read-out: Foxtail, Giant plant response rating (0 to 100 scale, 0 is no effect, 100 is complete control); for pest or weed control at 500 g/ha: 500 g ai/ha, preemergence, visual injury rating about 10 d after treatment, 0 to 100 scale (0 no effect, 100 complete control), read-out: Foxtail, Giant plant response rating
Summary of the method: as §1

[5] = test system: ragweed (common ragweed, Ambrosia elatior); test: Test A preemergence; conditions: Ambrosia artemisiifolia, pre-emergence, 240 h; for pest or weed control at 125 g/ha: 125 g ai/ha, Preemergence, visual injury rating after approximately 10 d, read-out: Ragweed plant response rating (0 to 100 scale, 0 is no effect, 100 is complete control); for pest or weed control at 500 g/ha: 500 g ai/ha, preemergence, visual injury rating about 10 d after treatment, 0 to 100 scale (0 no effect, 100 complete control), read-out: Ragweed plant response rating
Summary of the method: as §1

[6] = test system: pigweed (Amaranthus retroflexus); test: Test A preemergence; conditions: Amaranthus retroflexus, pre-emergence, 240 h; for pest or weed control at 125 g/ha: 125 g ai/ha, Preemergence, visual injury rating after approximately 10 d, read-out: Pigweed plant response rating (0 to 100 scale, 0 is no effect, 100 is complete control); for pest or weed control at 500 g/ha: 500 g ai/ha, preemergence, visual injury rating about 10 d after treatment, 0 to 100 scale (0 no effect, 100 complete control), read-out: Pigweed plant response rating
rice (Oryra sativa) = test: Test B flooded paddy test; conditions: Oryza sativa, Flood, 250 g ai/ha; scale of 0 to 100 where 0 is no effect and 100 is complete control; read-out: Rice plant response rating
Summary of the method: (§2)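 Plants at 2-leaf stage flooded to 3 cm above soil, with compounds applied directly to paddy water and that depth maintained. Plants kept in greenhouse 13–15 d. Visual rating versus controls on a 0 (no effect) to 100 (complete control) scale.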

[7] = test system: barnyardgrass (Echinochloa crus-galli); test: Test B flooded paddy test; conditions: Echinochloa crus-galli, Flood, 250 g ai/ha; scale of 0 to 100 where 0 is no effect and 100 is complete control; read-out: Barnyardgrass plant response rating
Summary of the method: as §2

[8] = test system: sedge, umbrella (small-flower umbrella sedge, Cyperus difformis); test: Test B flooded paddy test; conditions: Cyperus difformis, Flood, 250 g ai/ha; scale of 0 to 100 where 0 is no effect and 100 is complete control; read-out: Sedge, Umbrella plant response rating
Summary of the method: as §2

[9] = test system: ducksalad (Heteranthera limosa); test: Test B flooded paddy test; conditions: Heteranthera limosa, Flood, 250 g ai/ha; scale of 0 to 100 where 0 is no effect and 100 is complete control; read-out: Ducksalad plant response rating
Summary of the method: as §2

[10] = test system: ryegrass, Italian (Italian ryegrass, Lolium multiflorum); test: Test A postemergence; conditions: Lolium multiflorum, post-emergence, 240 h, 125 g ai/ha, Postemergence; visual injury after approximately 10 d; 0 to 100 scale where 0 is no effect and 100 is complete control; read-out: Plant response rating, Ryegrass, Italian
Summary of the method: as §1

[11] = test system: blackgrass (Alopecurus myosuroides); test: Test A postemergence; conditions: Alopecurus myosuroides, post-emergence, 240 h, 125 g ai/ha, Postemergence; visual injury after approximately 10 d; 0 to 100 scale where 0 is no effect and 100 is complete control; read-out: Plant response rating, Blackgrass
Summary of the method: as §1

[12] = test system: wheat (Triticum aestivum); test: Test A postemergence; conditions: Triticum aestivum, post-emergence, 240 h, 125 g ai/ha, Postemergence; visual injury after approximately 10 d; 0 to 100 scale where 0 is no effect and 100 is complete control; read-out: Plant response rating, Wheat
Summary of the method: as §1

corn (Zea mays) = test: Test A postemergence; conditions: Zea mays, post-emergence, 240 h, 125 g ai/ha, Postemergence; visual injury after approximately 10 d; 0 to 100 scale where 0 is no effect and 100 is complete control
Summary of the method: as §1

[13] = test system: barnyardgrass (Echinochloa crus-galli); test: Test A postemergence; conditions: Echinochloa crus-galli, post-emergence, 240 h, 125 g ai/ha, Postemergence; visual injury after approximately 10 d; 0 to 100 scale where 0 is no effect and 100 is complete control; read-out: Plant response rating, Barnyardgrass
Summary of the method: as §1

Kochia (Kochia scoparia) [14] = test: Test A postemergence; conditions: Bassia scoparia, post-emergence, 240 h, 125 g ai/ha, Postemergence; visual injury after approximately 10 d; 0 to 100 scale where 0 is no effect and 100 is complete control; read-out: Plant response rating, Kochia
Summary of the method: as §1

[15] = test system: giant foxtail (Setaria faberii); test: Test A postemergence; conditions: Setaria faberi, post-emergence, 240 h, 125 g ai/ha, Postemergence; visual injury after approximately 10 d; 0 to 100 scale where 0 is no effect and 100 is complete control; read-out: Plant response rating, Foxtail, Giant
Summary of the method: as §1

[16] = test system: ragweed (common ragweed, Ambrosia elatior); test: Test A postemergence; conditions: Ambrosia artemisiifolia, post-emergence, 240 h, 125 g ai/ha, Postemergence; visual injury after approximately 10 d; 0 to 100 scale where 0 is no effect and 100 is complete control; read-out: Plant response rating, Ragweed
Summary of the method: as §1

[17] = test system: pigweed (Amaranthus retroflexus); test: Test A postemergence; conditions: Amaranthus retroflexus, post-emergence, 240 h, 125 g ai/ha, Postemergence; visual injury after approximately 10 d; 0 to 100 scale where 0 is no effect and 100 is complete control; read-out: Plant response rating, Pigweed
Summary of the method: as §1

[18] = test system: Galium (catchweed bedstraw, Galium aparine); test: Test A postemergence; conditions: Galium, post-emergence, 240 h, 125 g ai/ha, Postemergence; visual injury after approximately 10 d; 0 to 100 scale where 0 is no effect and 100 is complete control; read-out: Plant response rating, Galium
Summary of the method: as §1

Row | Structure (SMILES) | pest or weed control at 125 g/ha [1] | pest or weed control at 500 g/ha [1] | pest or weed control at 125 g/ha [2] | pest or weed control at 500 g/ha [2] | pest or weed control at 125 g/ha (Kochia (Kochia scoparia) [3]) | pest or weed control at 500 g/ha (Kochia (Kochia scoparia) [3]) | pest or weed control at 125 g/ha [4] | pest or weed control at 500 g/ha [4] | pest or weed control at 125 g/ha [5] | pest or weed control at 500 g/ha [5] | pest or weed control at 125 g/ha [6] | pest or weed control at 500 g/ha [6] | pest or weed control at 250 g/ha (rice (Oryra sativa)) | pest or weed control at 250 g/ha [7] | pest or weed control at 250 g/ha [8] | pest or weed control at 250 g/ha [9] | pest or weed control at 125 g/ha [10] | pest or weed control at 125 g/ha [11] | plant injury at 125 g/ha [12] | Corn plant response rating (crop injury, 0 = no effect, 100 = complete kill) at 125 g/ha (corn (Zea mays)) | other results
1 | CC(C)Oc1ccc([C@H]2CN(C)C(=O)[C@@H]2C(=O)Nc2ccccc2F)cc1 [Compound 952] | 0% | 0% | 50% | 90% | 30% | 30% | 80% | 90% | 0% | 0% | 0% | 0% | 0% | 0% | 0% | 40% | 0% | 0% | 0% | 0% | pest or weed control at 125 g/ha [13]: 60%; pest or weed control at 125 g/ha (Kochia (Kochia scoparia) [14]): 0%; pest or weed control at 125 g/ha [15]: 50%; pest or weed control at 125 g/ha [16]: 0%; pest or weed control at 125 g/ha [17]: 0%; pest or weed control at 125 g/ha [18]: 0%
2 | CC(C)Oc1ccc([C@H]2CN(C)C(=O)[C@@H]2C(=O)Nc2cccc(F)c2F)cc1 [Compound 953] | 0% | 60% | 90% | 90% | 60% | 60% | 90% | 100% | 0% | 0% | 0% | 0% | 0% | 20% | 0% | 40% | 0% | 0% | 0% | 0% | pest or weed control at 125 g/ha [13]: 90%; pest or weed control at 125 g/ha (Kochia (Kochia scoparia) [14]): 30%; pest or weed control at 125 g/ha [15]: 90%; pest or weed control at 125 g/ha [16]: 0%; pest or weed control at 125 g/ha [17]: 0%; pest or weed control at 125 g/ha [18]: 20%

From patent US12077503B2, “Substituted cyclic amides and their use as herbicides” (FMC CORPORATION, priority 2015, dated 2024)
